Experimental data as given in patent US7253159B2, “Methods and compositions for immunomodulation using CD1 antigens” (The Brigham and Women's Hospital, Inc., priority 2003, dated 2007).

Columns and labels:
[1] = test system: CD1a-restricted T cell lines (J.RT-3/CD8-2 cells); type: cell-based; details: FIG. 7, comparison between homologs
[2] = Iron-bound or unbound form detected by mass spectrometry; type: physicochemical; details: mass spectrometry: [M+Fe−2H]+ at m/z 923.5 or proton adduct at m/z 838.6
Excerpt: The newly discovered antigens share some structural homology to mycobactin siderophores but lack two hydroxyl groups present in mycobactins, which confer upon mycobactins their ability to bind iron.

CD1a-restricted T cells = test: CD1a-restricted T cell activation assay (CD8-2 T cell line); type: cell-based
[3] = test system: J.RT-3 T lymphoblastoid cells / CD1a; type: cell-based
polyclonal T cells = test: Activation of polyclonal T cells; type: cell-based; details: test for mitogen effects
CD1b transfectants = type: cell-based; details: test for mitogen effects
CD1c transfectants = type: cell-based; details: test for mitogen effects

Row | Compound | T cell response (ability to activate T cells) [1] | form detected (iron-bound or unbound) [2] | CD1a-restricted T cell response (recognition by T cells) (CD1a-restricted T cells) | calcium flux (activation) ([3]; […], Fura Red and Fluo-4, flow cytometry) | activation (calcium flux) in control settings ([3]; antigen, TCR or CD1a omitted, or cells not subjected to centrifugation (spin)) | activation of polyclonal T cells (polyclonal T cells) | activation with CD1b transfectants (CD1b transfectants) | activation with CD1c transfectants (CD1c transfectants)
1 | mycobactin [reference compound] | not recognized | iron-bound form | did not stimulate |  |  |  |  | 
2 | CCCCCCCCCCCCCCC/C=C\C(=O)NCCCCC(NC(=O)C1(C)COC(c2ccccc2O)=N1)C(=O)OC(C)CC(=O)NC1CCCCNC1=O (stereo not drawn) [DDM838, didehydroxymycobactin] | most potent | unbound form |  | Strong calcium flux | No activation | not above to activate | not above to activate | not above to activate
3 | CCCCCCCCCCCCCCCCCC(=O)NCCCCC(NC(=O)C1(C)COC(c2ccccc2O)=N1)C(=O)OC(C)CC(=O)NC1CCCCNC1=O (stereo not drawn) [DDM812] | weaker ability to activate T cells |  |  |  |  |  |  | 
4 | CCCCCCCCCCCCCCCCCCCC(=O)NCCCCC(NC(=O)C1(C)COC(c2ccccc2O)=N1)C(=O)OC(C)CC(=O)NC1CCCCNC1=O (stereo not drawn) [DDM840] | weaker ability to activate T cells |  |  |  |  |  |  | 
